Experiments:
Conditions in all cases: Compound concentration 1000.0 nM
[1] = system: Tyrosine-protein kinase ABL1 (Homo sapiens), P00519 [F317I]
[2] = system: Tyrosine-protein kinase ABL1 (Homo sapiens), P00519 [F317L]
[3] = target: Activin receptor type-2B (Homo sapiens) (UniProt Q13705)
[4] = target: Mitogen-activated protein kinase kinase kinase 6 (Homo sapiens) (UniProt O95382)
[5] = target: Calcium/calmodulin-dependent protein kinase type 1G (Homo sapiens) (UniProt Q96NX5)
[6] = target: Calcium/calmodulin-dependent protein kinase type II subunit gamma (Homo sapiens) (UniProt Q13555)
[7] = target: Cyclin-dependent kinase 5 (Homo sapiens) (UniProt Q00535)
[8] = target: Serine/threonine-protein kinase DCLK3 (Homo sapiens) (UniProt Q9C098)
Sequence of Serine/threonine-protein kinase DCLK3 (Homo sapiens) (Q9C098 whole entry): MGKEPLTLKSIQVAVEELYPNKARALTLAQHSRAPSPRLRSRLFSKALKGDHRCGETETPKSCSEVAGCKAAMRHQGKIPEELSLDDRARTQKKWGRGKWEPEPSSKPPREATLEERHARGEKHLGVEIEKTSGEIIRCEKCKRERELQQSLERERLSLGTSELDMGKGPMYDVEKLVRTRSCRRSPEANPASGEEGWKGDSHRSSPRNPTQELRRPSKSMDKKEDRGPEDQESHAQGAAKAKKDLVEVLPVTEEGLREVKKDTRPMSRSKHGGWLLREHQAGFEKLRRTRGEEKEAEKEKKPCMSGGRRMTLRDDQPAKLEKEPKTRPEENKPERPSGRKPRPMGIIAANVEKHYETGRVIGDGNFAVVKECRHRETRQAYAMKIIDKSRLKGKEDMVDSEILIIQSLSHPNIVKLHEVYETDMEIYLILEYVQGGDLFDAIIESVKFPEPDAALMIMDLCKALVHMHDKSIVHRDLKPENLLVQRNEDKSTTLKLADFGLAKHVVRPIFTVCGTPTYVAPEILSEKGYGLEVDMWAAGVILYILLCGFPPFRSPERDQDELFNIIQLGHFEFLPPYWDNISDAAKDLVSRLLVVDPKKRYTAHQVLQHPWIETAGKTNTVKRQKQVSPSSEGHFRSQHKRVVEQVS

[9] = system: Epidermal growth factor receptor (Homo sapiens), P00533 [UNDEFINED MUTATION]
Sequence of Epidermal growth factor receptor (Homo sapiens), P00533 [UNDEFINED MUTATION] (P00533 whole entry, looked up, change not shown): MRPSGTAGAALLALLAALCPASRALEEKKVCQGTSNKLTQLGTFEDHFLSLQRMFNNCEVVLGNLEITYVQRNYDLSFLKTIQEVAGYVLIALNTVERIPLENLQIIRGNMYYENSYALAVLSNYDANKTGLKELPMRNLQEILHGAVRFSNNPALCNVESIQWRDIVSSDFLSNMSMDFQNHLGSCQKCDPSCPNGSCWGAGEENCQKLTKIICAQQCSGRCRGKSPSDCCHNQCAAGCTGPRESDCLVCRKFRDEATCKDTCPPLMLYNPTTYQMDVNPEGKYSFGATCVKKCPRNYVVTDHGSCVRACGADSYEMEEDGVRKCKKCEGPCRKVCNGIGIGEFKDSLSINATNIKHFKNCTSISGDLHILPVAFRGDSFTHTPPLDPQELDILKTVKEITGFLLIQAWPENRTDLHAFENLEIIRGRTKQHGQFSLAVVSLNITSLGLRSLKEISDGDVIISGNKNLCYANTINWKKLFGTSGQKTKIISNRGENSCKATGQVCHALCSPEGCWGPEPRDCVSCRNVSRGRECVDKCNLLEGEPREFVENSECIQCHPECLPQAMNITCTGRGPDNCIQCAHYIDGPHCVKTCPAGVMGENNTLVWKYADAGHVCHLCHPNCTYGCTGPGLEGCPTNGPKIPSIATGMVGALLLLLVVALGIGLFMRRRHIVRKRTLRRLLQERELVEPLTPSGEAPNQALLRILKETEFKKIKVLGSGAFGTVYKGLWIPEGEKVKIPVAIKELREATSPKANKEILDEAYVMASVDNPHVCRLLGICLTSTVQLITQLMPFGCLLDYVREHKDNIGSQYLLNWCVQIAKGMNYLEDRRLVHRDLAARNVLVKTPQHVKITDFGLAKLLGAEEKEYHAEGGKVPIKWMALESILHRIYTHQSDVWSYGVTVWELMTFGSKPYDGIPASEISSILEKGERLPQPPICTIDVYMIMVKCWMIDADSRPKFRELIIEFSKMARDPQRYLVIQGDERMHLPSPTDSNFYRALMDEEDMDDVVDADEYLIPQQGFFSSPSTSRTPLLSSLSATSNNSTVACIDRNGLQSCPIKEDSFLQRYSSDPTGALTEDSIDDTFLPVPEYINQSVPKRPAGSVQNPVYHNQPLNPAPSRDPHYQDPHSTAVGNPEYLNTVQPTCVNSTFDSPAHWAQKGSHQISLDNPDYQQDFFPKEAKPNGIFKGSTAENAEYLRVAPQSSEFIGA

[10] = target: Mitogen-activated protein kinase 7 (Homo sapiens) (UniProt Q13164)
[11] = target: T1, Homeodomain-interacting protein kinase 4 (Homo sapiens) (UniProt Q8NE63)
T1 sequence (whole entry): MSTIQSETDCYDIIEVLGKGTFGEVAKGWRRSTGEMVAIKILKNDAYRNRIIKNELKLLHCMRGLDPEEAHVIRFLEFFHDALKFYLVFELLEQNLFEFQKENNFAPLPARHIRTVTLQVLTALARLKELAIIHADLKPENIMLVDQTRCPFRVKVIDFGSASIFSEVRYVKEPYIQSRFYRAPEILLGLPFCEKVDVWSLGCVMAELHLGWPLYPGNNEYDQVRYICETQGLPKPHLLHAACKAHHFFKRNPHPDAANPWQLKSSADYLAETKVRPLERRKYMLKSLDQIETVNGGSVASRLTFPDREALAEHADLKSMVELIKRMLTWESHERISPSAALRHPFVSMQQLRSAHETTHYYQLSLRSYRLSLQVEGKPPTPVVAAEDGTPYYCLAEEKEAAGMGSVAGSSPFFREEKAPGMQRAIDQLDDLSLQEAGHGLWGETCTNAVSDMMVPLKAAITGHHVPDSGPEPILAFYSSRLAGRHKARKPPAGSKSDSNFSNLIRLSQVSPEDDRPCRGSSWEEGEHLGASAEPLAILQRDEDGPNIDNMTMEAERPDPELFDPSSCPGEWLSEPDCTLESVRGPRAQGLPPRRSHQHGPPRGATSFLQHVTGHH

[12] = target: T2, Mitogen-activated protein kinase kinase kinase 3 (Homo sapiens) (UniProt Q99759)
T2 sequence (whole entry): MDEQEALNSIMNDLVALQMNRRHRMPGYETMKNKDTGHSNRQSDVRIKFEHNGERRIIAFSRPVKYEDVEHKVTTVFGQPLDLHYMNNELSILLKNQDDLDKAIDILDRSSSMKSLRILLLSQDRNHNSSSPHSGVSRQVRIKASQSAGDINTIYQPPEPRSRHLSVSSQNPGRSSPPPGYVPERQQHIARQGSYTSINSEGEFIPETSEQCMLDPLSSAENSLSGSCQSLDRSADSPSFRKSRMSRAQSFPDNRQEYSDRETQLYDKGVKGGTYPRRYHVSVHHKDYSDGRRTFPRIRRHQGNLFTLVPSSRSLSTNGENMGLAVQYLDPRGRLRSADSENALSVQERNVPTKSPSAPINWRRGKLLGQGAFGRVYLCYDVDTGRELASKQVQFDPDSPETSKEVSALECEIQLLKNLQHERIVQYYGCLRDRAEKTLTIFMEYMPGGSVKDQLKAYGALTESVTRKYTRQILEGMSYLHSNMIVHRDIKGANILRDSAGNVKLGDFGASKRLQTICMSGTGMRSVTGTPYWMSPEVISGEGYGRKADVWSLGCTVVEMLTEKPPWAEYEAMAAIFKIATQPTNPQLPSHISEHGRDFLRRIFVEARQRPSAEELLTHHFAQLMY

[13] = target: Serine/threonine-protein kinase MARK2 (Homo sapiens) (UniProt Q7KZI7)
Sequence of Serine/threonine-protein kinase MARK2 (Homo sapiens) (Q7KZI7 whole entry): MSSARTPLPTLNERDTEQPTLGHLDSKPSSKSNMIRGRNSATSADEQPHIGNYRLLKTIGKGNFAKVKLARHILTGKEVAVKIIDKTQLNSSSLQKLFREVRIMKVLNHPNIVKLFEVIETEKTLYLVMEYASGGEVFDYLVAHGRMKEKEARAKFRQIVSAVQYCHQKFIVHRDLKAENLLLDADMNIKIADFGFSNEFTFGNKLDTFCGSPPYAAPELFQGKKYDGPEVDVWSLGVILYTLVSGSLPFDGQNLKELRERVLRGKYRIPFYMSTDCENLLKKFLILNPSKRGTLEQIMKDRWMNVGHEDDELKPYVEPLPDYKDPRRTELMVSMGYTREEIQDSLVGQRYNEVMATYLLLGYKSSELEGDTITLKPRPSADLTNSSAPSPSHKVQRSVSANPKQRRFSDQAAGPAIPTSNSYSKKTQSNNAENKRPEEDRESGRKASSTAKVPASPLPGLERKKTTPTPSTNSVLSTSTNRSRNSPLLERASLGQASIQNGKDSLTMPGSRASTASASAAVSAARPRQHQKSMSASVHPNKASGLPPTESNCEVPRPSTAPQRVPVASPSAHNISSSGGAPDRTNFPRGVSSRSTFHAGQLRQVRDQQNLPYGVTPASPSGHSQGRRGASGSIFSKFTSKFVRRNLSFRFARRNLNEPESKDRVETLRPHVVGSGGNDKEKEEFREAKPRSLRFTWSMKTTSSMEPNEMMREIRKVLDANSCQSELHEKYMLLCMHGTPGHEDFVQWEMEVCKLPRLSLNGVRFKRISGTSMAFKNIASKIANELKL

[14] = target: T3, Dual specificity mitogen-activated protein kinase kinase 3 (Homo sapiens) (UniProt P46734)
T3 sequence (whole entry): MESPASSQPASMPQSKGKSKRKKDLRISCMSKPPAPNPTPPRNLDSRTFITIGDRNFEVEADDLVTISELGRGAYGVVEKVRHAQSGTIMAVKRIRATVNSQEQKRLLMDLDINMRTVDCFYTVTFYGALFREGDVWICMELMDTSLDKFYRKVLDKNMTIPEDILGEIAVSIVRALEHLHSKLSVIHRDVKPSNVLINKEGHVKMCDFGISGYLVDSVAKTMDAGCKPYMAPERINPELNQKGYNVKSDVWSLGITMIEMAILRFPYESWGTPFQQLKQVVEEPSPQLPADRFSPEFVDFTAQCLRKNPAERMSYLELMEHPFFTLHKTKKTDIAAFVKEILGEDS

[15] = system: Hepatocyte growth factor receptor (Homo sapiens), P08581 [M1250T]
[16] = system: Phosphatidylinositol 4,5-bisphosphate 3-kinase catalytic subunit alpha isoform (Homo sapiens), P42336 [E545A]
Sequence of Phosphatidylinositol 4,5-bisphosphate 3-kinase catalytic subunit alpha isoform (Homo sapiens), P42336 [E545A] (P42336 whole entry E545A, canonical isoform): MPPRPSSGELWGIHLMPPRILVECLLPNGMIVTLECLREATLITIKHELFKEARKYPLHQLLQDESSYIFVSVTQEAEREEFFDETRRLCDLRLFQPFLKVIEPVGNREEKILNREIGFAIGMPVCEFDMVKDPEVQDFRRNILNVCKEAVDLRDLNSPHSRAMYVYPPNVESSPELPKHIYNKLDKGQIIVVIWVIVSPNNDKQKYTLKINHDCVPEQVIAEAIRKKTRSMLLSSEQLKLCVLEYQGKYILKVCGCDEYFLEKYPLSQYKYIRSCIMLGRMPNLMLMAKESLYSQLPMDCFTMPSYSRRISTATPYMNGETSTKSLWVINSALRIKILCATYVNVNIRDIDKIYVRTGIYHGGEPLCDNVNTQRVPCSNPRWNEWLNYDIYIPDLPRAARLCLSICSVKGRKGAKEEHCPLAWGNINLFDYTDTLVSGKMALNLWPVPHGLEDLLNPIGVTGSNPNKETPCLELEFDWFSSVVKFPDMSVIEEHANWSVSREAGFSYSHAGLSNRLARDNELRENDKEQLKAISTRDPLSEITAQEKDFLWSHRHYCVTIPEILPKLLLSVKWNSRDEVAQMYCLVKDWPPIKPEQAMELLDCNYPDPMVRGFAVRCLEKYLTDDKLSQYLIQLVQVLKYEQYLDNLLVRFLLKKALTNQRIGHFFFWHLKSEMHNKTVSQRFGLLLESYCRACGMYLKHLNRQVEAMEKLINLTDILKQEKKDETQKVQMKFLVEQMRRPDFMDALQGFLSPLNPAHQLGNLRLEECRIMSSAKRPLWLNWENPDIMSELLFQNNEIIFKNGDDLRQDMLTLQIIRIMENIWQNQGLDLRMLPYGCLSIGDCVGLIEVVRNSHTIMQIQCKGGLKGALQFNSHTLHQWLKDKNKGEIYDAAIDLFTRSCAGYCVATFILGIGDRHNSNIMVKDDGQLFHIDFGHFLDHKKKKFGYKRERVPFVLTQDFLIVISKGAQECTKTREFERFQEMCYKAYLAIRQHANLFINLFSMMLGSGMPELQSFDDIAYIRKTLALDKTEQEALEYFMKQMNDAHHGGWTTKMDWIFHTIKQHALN

[17] = target: Phosphatidylinositol 4,5-bisphosphate 3-kinase catalytic subunit gamma isoform (Homo sapiens) (UniProt P48736)
[18] = target: Ribosomal protein S6 kinase alpha-3 (Homo sapiens) (UniProt P51812)
[19] = target: STE20-like serine/threonine-protein kinase (Homo sapiens) (UniProt Q9H2G2)
[20] = target: Wee1-like protein kinase 2 (Homo sapiens) (UniProt P0C1S8)

Measured: residual activity

Sequence of Tyrosine-protein kinase ABL1 (Homo sapiens), P00519 [F317I] (P00519 whole entry F317I): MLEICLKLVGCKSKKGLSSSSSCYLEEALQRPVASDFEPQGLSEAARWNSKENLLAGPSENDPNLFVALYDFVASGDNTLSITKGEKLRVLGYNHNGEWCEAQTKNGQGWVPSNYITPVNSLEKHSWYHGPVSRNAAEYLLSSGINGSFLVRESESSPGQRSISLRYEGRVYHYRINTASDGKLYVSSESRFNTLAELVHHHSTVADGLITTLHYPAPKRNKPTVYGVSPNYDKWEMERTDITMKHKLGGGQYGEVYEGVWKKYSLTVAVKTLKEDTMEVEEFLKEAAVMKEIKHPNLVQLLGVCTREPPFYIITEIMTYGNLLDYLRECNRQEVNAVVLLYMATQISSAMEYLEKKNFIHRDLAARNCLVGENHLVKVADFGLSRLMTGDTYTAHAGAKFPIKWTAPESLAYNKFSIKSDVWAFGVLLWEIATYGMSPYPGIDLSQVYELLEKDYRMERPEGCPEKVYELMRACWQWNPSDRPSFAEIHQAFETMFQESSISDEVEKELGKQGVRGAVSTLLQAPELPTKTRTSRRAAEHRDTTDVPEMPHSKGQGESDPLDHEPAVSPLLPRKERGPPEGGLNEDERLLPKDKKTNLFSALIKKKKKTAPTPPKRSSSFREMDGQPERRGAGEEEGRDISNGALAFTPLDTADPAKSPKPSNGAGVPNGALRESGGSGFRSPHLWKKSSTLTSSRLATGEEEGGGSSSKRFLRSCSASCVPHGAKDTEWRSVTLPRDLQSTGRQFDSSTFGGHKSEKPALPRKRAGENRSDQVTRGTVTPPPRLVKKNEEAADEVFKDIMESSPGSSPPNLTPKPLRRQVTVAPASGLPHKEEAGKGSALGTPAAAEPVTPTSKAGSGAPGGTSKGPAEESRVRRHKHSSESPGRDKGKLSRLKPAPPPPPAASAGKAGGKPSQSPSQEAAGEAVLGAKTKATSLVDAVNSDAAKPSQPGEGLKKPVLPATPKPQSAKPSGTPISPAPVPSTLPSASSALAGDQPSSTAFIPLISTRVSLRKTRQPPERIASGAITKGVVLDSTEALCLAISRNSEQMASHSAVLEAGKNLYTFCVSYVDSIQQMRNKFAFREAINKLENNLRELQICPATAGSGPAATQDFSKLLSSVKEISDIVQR
Sequence of Tyrosine-protein kinase ABL1 (Homo sapiens), P00519 [F317L] (P00519 whole entry F317L): as the sequence (P00519 whole entry F317I) above, with I317L counted along it

CN(C)C(=O)Cn1cc(-c2nc(C3(c4ccc(-c5cnc(N)nc5)cc4)CC3)no2)cn1 [BI 0153]
inactive: [1] 90% | [2] 85% | [3] 96% | [4] 78% | [5] 100% | [6] 98% | [7] 100% | [8] 100% | [9] 100% | [10] 97% | [11] 100% | [12] 81% | [13] 92% | [14] 71% | [15] 100% | [16] 99% | [17] 85% | [18] 92% | [19] 77% | [20] 99%

CN(C)C(=O)Cn1cc(-c2nc([C@@](C)(c3ccc(-c4cnc(N)nc4)cc3)C3CC3)no2)cn1 [BI 665915]
inactive: [1] 100% | [2] 88% | [3] 81% | [4] 90% | [5] 100% | [6] 100% | [7] 100% | [8] 96% | [9] 100% | [10] 90% | [11] 70% | [12] 86% | [13] 100% | [14] 83% | [15] 93% | [16] 75% | [17] 72% | [18] 83% | [19] 94% | [20] 100%

Source: ChEMBL document CHEMBL4507276 (2021)
